Experimental data published in patent US9861703B2 (Jinan Platinum Pharmatech Co. Ltd., priority 2013, dated 2018).
Counter-ions that a name gives are not always drawn. Blank lines part the entries; values can stand above or below the molecule they belong to.

Columns and labels:
Aminopeptidase N = target: T1, Aminopeptidase N (Sus scrofa, UniProt P15145); assay: Inhibition activity against enzyme in vitro (aminopeptidase N, L-Leu-p-nitroanilide substrate); type: biochemical; conditions: for IC50: 37° C., 0.5 h, absorbance 405 nm, PBS pH 7.2, read-out: IC50(μM) APN
T1 construct: purchased Sigma
T1 sequence (P15145 1-963): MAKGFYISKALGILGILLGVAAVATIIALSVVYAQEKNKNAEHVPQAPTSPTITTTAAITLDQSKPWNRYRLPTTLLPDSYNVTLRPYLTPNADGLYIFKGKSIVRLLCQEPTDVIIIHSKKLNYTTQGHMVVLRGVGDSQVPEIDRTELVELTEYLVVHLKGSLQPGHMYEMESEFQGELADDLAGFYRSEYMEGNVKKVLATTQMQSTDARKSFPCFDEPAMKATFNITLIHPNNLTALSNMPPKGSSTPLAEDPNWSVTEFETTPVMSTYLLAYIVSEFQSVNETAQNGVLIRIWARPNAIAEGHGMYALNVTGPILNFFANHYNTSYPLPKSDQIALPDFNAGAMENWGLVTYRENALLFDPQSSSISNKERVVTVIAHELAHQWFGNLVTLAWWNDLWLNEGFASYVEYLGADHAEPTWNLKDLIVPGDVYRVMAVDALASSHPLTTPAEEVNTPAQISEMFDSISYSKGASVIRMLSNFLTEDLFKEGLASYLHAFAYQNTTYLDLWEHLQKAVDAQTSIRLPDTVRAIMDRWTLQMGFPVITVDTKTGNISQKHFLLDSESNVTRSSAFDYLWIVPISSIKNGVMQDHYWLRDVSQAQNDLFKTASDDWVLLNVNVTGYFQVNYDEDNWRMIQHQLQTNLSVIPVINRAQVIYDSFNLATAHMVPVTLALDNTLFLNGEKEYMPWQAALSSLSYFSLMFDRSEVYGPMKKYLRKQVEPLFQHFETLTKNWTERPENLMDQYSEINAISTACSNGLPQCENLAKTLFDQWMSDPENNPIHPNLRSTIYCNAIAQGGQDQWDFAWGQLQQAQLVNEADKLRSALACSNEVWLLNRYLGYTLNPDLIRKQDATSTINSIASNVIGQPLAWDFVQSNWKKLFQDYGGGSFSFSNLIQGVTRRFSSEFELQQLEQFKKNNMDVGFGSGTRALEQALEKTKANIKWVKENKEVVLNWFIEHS
Description: Aminopeptidase N and L-Leu-p-nitroanilide as substrate were purchased from Sigma cooperation.
Preparation of Buffer Solution: 12.89 g Na2HPO4.12H2O and 2.18 g NaH2PO4.2H2O were dissolved in a 1000 mL volumetric flask, then the mixture was diluted to 1000 mL with fresh distilled water to obtain 50 mM Phosphate Buffer solution (PBS, pH 7.2), which was kept at room temperature to spare.
Aminopeptidase N was dissolved in the buffer solution to obtain 0.1 IU/mL solution.
The substrate was dissolved in DMSO to obtain a […] solution, which was kept in refrigerator to spare.
The aminopeptidase N solution 10 μL, the substrate solution 5 μL and compound with different concentration 40 μL were added into a 96-well cell plate, and then adjusted to 200 μL with phosphate buffer saline solution (pH 7.2). […] And the substrate solution 5 μL of blank group was adjusted to 200 μL with buffer solution. The mixture was incubated at 37° C. for 0.5 h, and absorbance was then determined at 405 nm wavelength Inhibitory ratio can be calculated as follows: […]
According to concentration of compound and corresponding inhibitory ratio, the IC50 value was calculated by using a fitting curve of Origin 7.5 software.

[1] = test system: clear-cell ovarian carcinoma cell line ES-2; assay: MTT proliferation inhibition, ES-2; type: cell-based; conditions: 48 h
Description: (§1) Human leukemia cell line K562, clear-cell ovarian carcinoma cell line ES-2, human prostate cancer cell line PC-3, human breast cancer cell line MCF-7, cell line Hela, human liver cancer cell line H7402 and human ovarian cancer cell line 3-AO were transferred into a culture flask and were cultured in a medium at 37° C. in a 5% CO2 and saturation humidity. One bottle of cells in logarithmic growth phase was picked out and was blew and beaten to be uniform with a pipette, then took some cell suspension solution to prepare blood counting plate smear to count cells under inverted microscope, and then adjusted the cell number to be 1×10^5/mL by adding some culture medium. Cells were seeded on a 96-well plate on which also drug tests performed. Blank control group, negative control group, positive control group and drug test group were established on the plate while the surrounding wells of the plate were not used (but filled with sterile PBS), wherein the blank control groups were prepared by addition of culture medium 150 μL per well, the negative control groups were prepared by addition of cell suspension solution 100 μL per well and culture medium 50 μL per well, the positive control groups were prepared by addition of cell suspension solution 100 μL per well and positive control drug solution 50 μL per well, the drug test groups were prepared by addition of cell suspension solution 100 μL per well and test compound solution 50 μL per well, and there were 5 different concentrations of drug in the positive control group and the drug test group respectively: 0.01, 0.1, 1, 10, 100 μmol·L^−1, each concentration was established with 3 parallel wells. After the drug was added, the 96-well plate was incubated for 48 h at 37° C. in a CO2 incubator of 5% CO2 and saturation humidity. Upon completion of the incubation, 20 μL MTT solution (concentration was 5 mg/mL) was added to each well and incubated for an additional 4 h, and after the 96-well plate was centrifuged at 2000 rpm for 30 min, medium of each well was suck out carefully and removed and 100 μL DMSO was added instead, followed by vibrating on a tablet shaker for 15 min to re-dissolve formazan crystals completely. OD value of each well was measured at 570 nm wavelength using an enzyme-linked immunosorbent assay reader to calculate cellular proliferation inhibitory ratio of each drug in different concentrations. And half-inhibitory concentration (IC50) was calculated using statistical software SPSS 16.0, wherein the cellular proliferation inhibitory ratio can be calculated as following equation: […]

[2] = test system: human leukemia cell line K562; assay: MTT proliferation inhibition, K562; type: cell-based
Description: as §1

[3] = test system: human prostate cancer cell line PC-3; assay: MTT proliferation inhibition, PC-3; type: cell-based; conditions: 48 h
Description: as §1

[4] = test system: human breast cancer cell line MCF-7; assay: MTT proliferation inhibition, MCF-7; type: cell-based
Description: as §1

cell line Hela = assay: MTT proliferation inhibition, Hela; type: cell-based; conditions: 48 h
Description: as §1

[5] = test system: human liver cancer cell line H7402; assay: MTT proliferation inhibition, H7402; type: cell-based
Description: as §1

[6] = test system: human ovarian cancer cell line 3-AO; assay: MTT proliferation inhibition, 3-AO; type: cell-based; conditions: 48 h
Description: as §1

[7] = test system: 7 cell lines (ES-2, K562, PC-3, MCF-7, Hela, H7402, 3-AO); assay: MTT proliferation inhibition, all 7 tumor cell lines (summary in words); type: cell-based
Description: as §1

H22 tumor cells = assay: Activities of compounds in H22 tumor cells bearing Kunming mice models (Example 34); conditions: intravenous injection, 58.3 mg/kg/d (0.1 mmol/kg/d)
Description: The ascites was extracted from H22 tumour bearing mice with well growth, followed by adding sterile PBS to dilute the ascites to a concentration of 8.5×10^7 cells/mL. 100 uL of the cells solution was suck up by a 1 mL sterile injector to inoculate into right oxter of mice. After 3 days, the mice were weighted and randomized to several groups (almost 8 mice per group, and a bit more in control group). These mice were administrated a predetermined dosage by intravenous or oral gavage with two days off when having administrated for 5 days until two cycles one of which had 7 days. The body weight of mouse was recorded at the beginning and ending of every cycle,
After being administrated for two cycles, the mice were weighted and recorded, then sacrificed by cervical dislocation to get lung, liver and spleen weighted respectively.
Overall difference was calculated by the function of one-way analysis of variance (One-Way ANOVA) in Origin 7.5 software; and t-test was used for pair-comparison between drug administrated group and blank group, and the inhibitory ratio of drug in each group was calculated based on the following equation: inhibitory ratio (100%)=(mean tumor weight of control group−mean tumor weight of drug administrated group)/mean tumor weight of control group×100.

Molecule: (S)-2-(4-(6-(5-(2-chloro-6-methylphenyl)-2-thiazolylcarbonyl amino)-2-methyl-4-pyrimidinyl)-1-piperazinyl)ethyl-2-((2S,3R)-3-amino-2-hydroxy-4-phenylbutyryl)-4-methylpentanoate hydrochloride [Compound 32]
inhibitory activity against aminopeptidase N compared with positive control ubenimex (Aminopeptidase N): comparable activity with ubenimex | IC50 (Aminopeptidase N): 7.88 µM | EC50 [1]: 6.45 µM | EC50 ([2]; 48 h): 6.33 µM | EC50 [3]: 14.1 µM | EC50 ([4]; 48 h): 3.65 µM | EC50 (cell line Hela): 3.23 µM | EC50 ([5]; 48 h): 6.75 µM | EC50 [6]: 4.89 µM | anti-proliferation effect against all the tumor cells [7]: obvious anti-proliferation effect | proliferation inhibition activity compared with 5-FU [7]: much more potent than 5-FU

IC50 (Aminopeptidase N): 4.66 µM
Molecule: CC(C)C[C@H](NC(=O)[C@@H](O)[C@H](N)Cc1ccccc1)C(=O)NCCCCCC(=O)OCn1cc(F)c(=O)[nH]c1=O [BC-06, hydrochloride]
inhibitory activity against aminopeptidase N compared with positive control ubenimex (Aminopeptidase N): much more potent than the positive control drug ubenimex

IC50 (Aminopeptidase N): 1.39 µM
Molecule: CC(C)C[C@H](NC(=O)[C@@H](O)[C@H](N)Cc1ccccc1)C(=O)NCCCC(=O)OCn1cc(F)c(=O)[nH]c1=O [BC-05, (5-fluoro-2,4-dioxo-3,4-dihydropyrimidinyl-1(2H))methyl-6-((S)-2-((2S,3R)-3-amino-2-hydroxy-4-phenylbutanamido)-4-methylpentanamido)butanoate hydrochloride]
inhibitory activity against aminopeptidase N compared with positive control ubenimex (Aminopeptidase N): much more potent than the positive control drug ubenimex

Molecule: (S)-2-((2S,4S)-4-((2S,4S,5R,6S)-4-((tert-butoxycarbonyl)amino)-5-hydroxy-6-methyl-2(2H)-tetrahydropyranyloxy))-2,5,12-trihydroxy-7-methoxy-6,11-dioxo-2-(1,2,3,4,6,11-hexahydrotetracenyl)-2-ethoxy-2-((2S,3R)-3-amino-2-hydroxy-4-phenylbutyryl)-4-methylpentanoate hydrochloride [Compound 28]
inhibitory activity against aminopeptidase N compared with positive control ubenimex (Aminopeptidase N): comparable activity with ubenimex | IC50 (Aminopeptidase N): 5.56 µM | EC50 [1]: 3.34 µM | EC50 ([2]; 48 h): 4.35 µM | EC50 [3]: 7.67 µM | EC50 ([4]; 48 h): 2.55 µM | EC50 (cell line Hela): 1.99 µM | EC50 ([5]; 48 h): 4.02 µM | EC50 [6]: 3.02 µM | anti-proliferation effect against all the tumor cells [7]: obvious anti-proliferation effect | proliferation inhibition activity compared with 5-FU [7]: much more potent than 5-FU

IC50 (Aminopeptidase N): 0.36 µM
Molecule: CC(C)C[C@H](NC(=O)[C@@H](O)[C@H](N)Cc1ccccc1)C(=O)N[C@@H](C)C(=O)OCn1cc(F)c(=O)[nH]c1=O.Cl [BC-03, (S)-(5-fluoro-2,4-dioxo-3,4-dihydropyrimidinyl-1(2H))methyl-2-((S)-2-((2S,3R)-3-amino-2-hydroxy-4-phenylbutanamido)-4-methylpentanamido)propanoate hydrochloride]
inhibitory activity against aminopeptidase N compared with positive control ubenimex (Aminopeptidase N): much more potent than the positive control drug ubenimex

IC50 (Aminopeptidase N): 1.3 µM
Molecule: CC(C)C[C@H](NC(=O)[C@@H](O)[C@H](N)Cc1ccccc1)C(=O)NCCC(=O)OCn1cc(F)c(=O)[nH]c1=O [BC-04, (5-fluoro-2,4-dioxo-3,4-dihydropyrimidinyl-1(2H))methyl-4-((S)-2-((2S,3R)-3-amino-2-hydroxy-4-phenylbutanamido)-4-methylpentanamido)propanoate hydrochloride]
inhibitory activity against aminopeptidase N compared with positive control ubenimex (Aminopeptidase N): much more potent than the positive control drug ubenimex

Molecule: CC(C)C[C@H](NC(=O)[C@@H](O)[C@H](N)Cc1ccccc1)C(=O)N1CCC[C@H]1C(=O)OCn1cc(F)c(=O)[nH]c1=O [BC-07, (S)-(5-fluoro-2,4-dioxo-3,4-dihydropyrimidinyl-1(2H))methyl-1-((S)-2-((2S,3R)-3-amino-2-hydroxy-4-phenylbutanamido)-4-methylpentanamido)-2-tetrahydropyrrolidine carboxylate hydrochloride]
inhibitory activity against aminopeptidase N compared with positive control ubenimex (Aminopeptidase N): much more potent than the positive control drug ubenimex | IC50 (Aminopeptidase N): 0.15 µM | Number of mice alive (H22 tumor cells; 8 mice, two cycles): 6 | Tumor growth inhibition (%) (H22 tumor cells; after two cycles): 43.61% | Tumor weight (H22 tumor cells; after two cycles): 0.34 ± 0.24 g | Body weight(g) Beginning (H22 tumor cells; beginning): 32.17 ± 3.86 g | Body weight(g) Ending (H22 tumor cells; ending): 31.44 ± 5.01 g

inhibitory activity against aminopeptidase N compared with positive control ubenimex (Aminopeptidase N): comparable activity with ubenimex | IC50 (Aminopeptidase N): 2.92 µM | EC50 ([1]; Ovarian carcinoma cell): 5.66 µM | EC50 ([2]; Homo sapiens, K562, 48 h): 6.52 µM | EC50 ([3]; Homo sapiens): 13.3 µM | EC50 ([4]; Homo sapiens, MCF7, 48 h): 6.74 µM | EC50 (cell line Hela; Homo sapiens): 5.55 µM | EC50 ([5]; Homo sapiens, H7402, 48 h): 7.98 µM | EC50 ([6]; Homo sapiens): 9.06 µM
Molecule: CC(C)C[C@H](NC(=O)[C@@H](O)[C@H](N)Cc1ccccc1)C(=O)ONC(N)=O [Compound 22, (2S,3R)-3-amino-2-hydroxy-N—((S)-4-methylvaleryl)oxy)ureido)-4-phenylbutanamide hydrochloride]
anti-proliferation effect against all the tumor cells [7]: obvious anti-proliferation effect | proliferation inhibition activity compared with 5-FU [7]: much more potent than 5-FU

EC50 ([1]; Ovarian carcinoma cell): > 400 µM | EC50 ([2]; Homo sapiens, K562, 48 h): > 400 µM | EC50 ([3]; Homo sapiens): > 400 µM | EC50 ([4]; Homo sapiens, MCF7, 48 h): 32.7 µM | EC50 (cell line Hela; Homo sapiens): 79.6 µM | EC50 ([5]; Homo sapiens, H7402, 48 h): 189 µM | EC50 ([6]; Homo sapiens): > 400 µM
Molecule: CC(C)C[C@H](NC(=O)[C@@H](O)[C@H](N)Cc1ccccc1)C(=O)O [ubenimex, Ubenimex, reference compound]
